Assay [1] concerns the target T1, Neprilysin (Rattus norvegicus) (UniProt P07861).
T1 sequence (whole entry): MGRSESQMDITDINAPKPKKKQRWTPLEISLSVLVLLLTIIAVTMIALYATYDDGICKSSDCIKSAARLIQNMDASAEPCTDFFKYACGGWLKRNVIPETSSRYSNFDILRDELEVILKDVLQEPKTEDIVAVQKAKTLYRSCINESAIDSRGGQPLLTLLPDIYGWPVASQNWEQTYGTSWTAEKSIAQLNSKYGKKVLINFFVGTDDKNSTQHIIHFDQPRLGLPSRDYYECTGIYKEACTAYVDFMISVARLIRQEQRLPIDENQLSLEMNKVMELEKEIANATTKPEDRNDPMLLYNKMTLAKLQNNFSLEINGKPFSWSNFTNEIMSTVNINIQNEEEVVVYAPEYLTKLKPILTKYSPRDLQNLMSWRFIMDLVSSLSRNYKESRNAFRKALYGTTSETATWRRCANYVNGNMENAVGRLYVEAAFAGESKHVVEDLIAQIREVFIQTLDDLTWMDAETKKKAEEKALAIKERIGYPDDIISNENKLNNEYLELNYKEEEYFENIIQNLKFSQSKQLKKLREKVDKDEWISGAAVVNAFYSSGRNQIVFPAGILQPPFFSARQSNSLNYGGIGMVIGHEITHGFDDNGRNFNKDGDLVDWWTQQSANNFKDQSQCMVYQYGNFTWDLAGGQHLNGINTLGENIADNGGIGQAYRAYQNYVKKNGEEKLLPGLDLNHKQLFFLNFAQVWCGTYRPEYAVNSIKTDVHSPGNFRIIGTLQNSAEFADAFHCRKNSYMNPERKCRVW
In words: Inhibitory activity (10 uM) against rat neutral endopeptidase (NEP).

In assay [2] the target is T2, Endothelin-converting enzyme 1 (Homo sapiens) (UniProt P42892).
T2 sequence (whole entry): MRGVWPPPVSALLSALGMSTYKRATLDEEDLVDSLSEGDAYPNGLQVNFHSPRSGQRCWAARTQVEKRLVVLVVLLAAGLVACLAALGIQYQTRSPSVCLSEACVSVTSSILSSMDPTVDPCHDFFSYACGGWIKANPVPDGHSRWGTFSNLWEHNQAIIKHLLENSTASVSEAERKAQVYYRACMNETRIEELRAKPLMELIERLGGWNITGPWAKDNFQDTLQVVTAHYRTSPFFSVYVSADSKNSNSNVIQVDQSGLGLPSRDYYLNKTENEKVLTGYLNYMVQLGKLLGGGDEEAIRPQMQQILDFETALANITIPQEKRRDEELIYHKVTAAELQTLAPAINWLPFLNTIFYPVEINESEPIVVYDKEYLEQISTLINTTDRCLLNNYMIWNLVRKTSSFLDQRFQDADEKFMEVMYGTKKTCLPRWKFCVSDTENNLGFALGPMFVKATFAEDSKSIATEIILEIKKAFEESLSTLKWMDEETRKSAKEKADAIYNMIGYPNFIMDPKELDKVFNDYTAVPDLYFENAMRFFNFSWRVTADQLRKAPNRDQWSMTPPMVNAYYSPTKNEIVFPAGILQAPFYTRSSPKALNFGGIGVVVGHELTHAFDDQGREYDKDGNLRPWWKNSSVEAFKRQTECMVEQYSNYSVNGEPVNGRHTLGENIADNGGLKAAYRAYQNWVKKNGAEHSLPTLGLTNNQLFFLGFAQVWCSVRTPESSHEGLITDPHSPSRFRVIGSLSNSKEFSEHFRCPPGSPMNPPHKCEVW
In words: Inhibitory activity (1 uM) was assessed on CHO cells expressing in recombinant human Endothelin-converting enzyme 1 (ECE-1).

These results are taken from ChEMBL document CHEMBL1131381, “Design and synthesis of potent, selective inhibitors of endothelin-converting enzyme” (J Med Chem, 1998).

For the compound `COc1ccccc1C#CC[C@H](NCP(=O)(O)O)C(=O)N[C@@H](CC(C)C)C(=O)O`, the inhibition in assay [1] stood at 12%; in assay [2], 0%.
